Consider 14 molecules from paper PMC11287240 (RSC Advances, 2024).

The structures appear in SMILES notation. Where two headings read alike, the source gives them in different places.

The target in assay [1] is EeAChE (Electrophorus electricus acetylcholinesterase) (Electrophorus electricus, UniProt O42275). The assay can be described thus: AChE inhibition assay. The assay is classed as biochemical, electric eel.
The next assay deals with hBACE 1 (Homo sapiens, UniProt P56817). The assay can be described thus: BACE 1 FRET inhibition assay. In kind it is biochemical. Conditions: human BACE 1.
Where [2] appears, read: hBACE 1 IC50 (μM) ± SD, mean ± SD, n = 3, FRET assay.
[3] abbreviates: read-out: EeAChE IC50 (μM) ± SD, mean ± SD, n = 3, AChE from electric eel, Ellman assay.
Setting [4] is: read-out: hBACE 1 IC50 (μM) ± SD, mean ± SD, n = 3, FRET assay.

EeAChE (Electrophorus electricus acetylcholinesterase), sequence (O42275 24-633): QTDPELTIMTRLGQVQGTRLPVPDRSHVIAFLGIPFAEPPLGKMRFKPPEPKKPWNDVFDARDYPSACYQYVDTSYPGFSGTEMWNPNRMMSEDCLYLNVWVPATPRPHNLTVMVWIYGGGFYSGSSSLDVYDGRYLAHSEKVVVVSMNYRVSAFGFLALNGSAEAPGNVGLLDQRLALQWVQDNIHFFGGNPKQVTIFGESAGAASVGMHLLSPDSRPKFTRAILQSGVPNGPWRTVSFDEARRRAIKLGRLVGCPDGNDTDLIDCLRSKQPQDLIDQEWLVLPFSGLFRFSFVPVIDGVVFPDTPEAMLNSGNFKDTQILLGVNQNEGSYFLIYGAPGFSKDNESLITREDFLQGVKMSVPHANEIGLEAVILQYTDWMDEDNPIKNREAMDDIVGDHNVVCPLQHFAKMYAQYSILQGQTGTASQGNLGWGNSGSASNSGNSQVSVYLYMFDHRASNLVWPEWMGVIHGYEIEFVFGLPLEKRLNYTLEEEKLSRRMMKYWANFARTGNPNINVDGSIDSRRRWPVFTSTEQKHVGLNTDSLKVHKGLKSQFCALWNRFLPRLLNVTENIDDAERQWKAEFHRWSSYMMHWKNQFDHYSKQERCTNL
hBACE 1, sequence (P56817 46-501): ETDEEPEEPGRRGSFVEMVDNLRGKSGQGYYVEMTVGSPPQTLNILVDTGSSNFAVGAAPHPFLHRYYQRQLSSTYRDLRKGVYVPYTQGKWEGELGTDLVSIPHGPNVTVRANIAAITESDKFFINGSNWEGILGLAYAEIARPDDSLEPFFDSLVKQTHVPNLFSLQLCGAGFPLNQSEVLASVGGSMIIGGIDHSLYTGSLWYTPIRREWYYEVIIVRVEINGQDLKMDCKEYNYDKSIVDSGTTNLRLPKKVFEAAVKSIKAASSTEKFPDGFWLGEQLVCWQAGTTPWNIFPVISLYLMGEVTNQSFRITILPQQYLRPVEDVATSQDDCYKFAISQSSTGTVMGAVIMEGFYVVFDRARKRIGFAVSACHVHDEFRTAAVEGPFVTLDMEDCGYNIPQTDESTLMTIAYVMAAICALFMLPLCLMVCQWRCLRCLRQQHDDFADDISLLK

As for `[H]/N=C(/N)NN=C(/C=C/c1ccccc1)c1cn(Cc2ccc(Br)cc2F)c2ccccc12` [Compound 2i, (Z)-2-((E)-1-(1-(4-Bromo-2-fluorobenzyl)-1H-indol-3-yl)-3-phenylallylidene)hydrazine-1-carboximidamide], the IC50 in assay [1] is 42.6 ± 1.58 µM; against hBACE 1 (setting [2]), 185.95 ± 0.07 µM; at hBACE 1 (hBACE 1 PIC50 (μM)) it was 186 µM.

With `[H]/N=C(/N)NN=C(/C=C/c1ccccc1)c1cn(Cc2cccc(C#N)c2)c2ccccc12` [Compound 2j, (Z)-2-((E)-1-(1-(3-Cyanobenzyl)-1H-indol-3-yl)-3-phenylallylidene)hydrazine-1-carboximidamide], the half-inhibitory concentration (IC50) is 75.91 ± 0.32 µM in assay [1], 178.2 ± 0.92 µM against hBACE 1 (setting [2]) and 178 µM on hBACE 1 (hBACE 1 PIC50 (μM)).

For the molecule `[H]/N=C(/N)NN=C(/C=C/c1ccc(C(F)(F)F)cc1)c1cn(Cc2ccc(C(F)(F)F)cc2)c2ccccc12` [Compound 3a, (Z)-2-((E)-1-(1-(4-(Trifluoromethyl)benzyl)-1H-indol-3-yl)-3-(4-(trifluoromethyl)phenyl)allylidene)hydrazine-1-carboximidamide], in assay [1] (AChE from electric eel), the “EeAChE PIC50” value was found to be 4.42 µM. The IC50 in assay [1] (setting [3]) came to 38.4 ± 3.46 µM; on hBACE 1 (setting [4]) it was 222.3 ± 0.49 µM. Also, the “hBACE 1 PIC50” value on hBACE 1 was found to be 3.65 µM.

On to `[H]/N=C(/N)NN=C(/C=C/c1ccc(OC)c(OC)c1)c1cn(Cc2cc(OC)cc(OC)c2)c2ccccc12` [Compound 3b, (Z)-2-((E)-1-(1-(3,5-Dimethoxybenzyl)-1H-indol-3-yl)-3-(3,4-dimethoxyphenyl)allylidene)hydrazine-1-carboximidamide], for which the results for the IC50 (in assay [1]; on hBACE 1 (setting [2]); against hBACE 1 (hBACE 1 PIC50 (μM))) were 22 ± 0.65 µM, 198 ± 3.18 µM and 200 µM, respectively.

Turning to `[H]/N=C(/N)NN=C(/C=C/c1ccc(C(C)(C)C)cc1)c1cn(Cc2ccc(-c3ccccc3)cc2)c2ccccc12` [Compound 3c, (Z)-2-((E)-1-(1-([1,1′-Biphenyl]-4-ylmethyl)-1H-indol-3-yl)-3-(4-(tert-butyl)phenyl)allylidene)hydrazine-1-carboximidamide], the IC50 in assay [1] was 16.6 ± 1.04 µM; at hBACE 1 (setting [2]), 201 ± 3.82 µM; on hBACE 1 (hBACE 1 PIC50 (μM)), 200 µM.

With `[H]/N=C(/N)NN=C(/C=C/c1ccc(F)c(F)c1)c1cn(Cc2ccc(C(C)(C)C)cc2)c2ccccc12` [Compound 3d, (Z)-2-((E)-1-(1-(4-(tert-Butyl)benzyl)-1H-indol-3-yl)-3-(3,4-difluorophenyl)allylidene)hydrazine-1-carboximidamide], in assay [1] (AChE from electric eel), the “EeAChE PIC50” value turned out to be 3.71 µM. For the same molecule, the 50% inhibitory concentration (IC50) stood at 195.9 ± 1.73 µM in assay [1] (setting [3]) and 76.9 ± 2.38 µM at hBACE 1 (setting [4]). Further, the “hBACE 1 PIC50” value at hBACE 1 worked out at 4.11 µM.

In the case of `[H]/N=C(/N)NN=C(/C=C/c1ccc(OCc2ccccc2)cc1)c1cn(Cc2ccc(C)cc2)c2ccccc12` [Compound 3e, (Z)-2-((E)-3-(4-(Benzyloxy)phenyl)-1-(1-(4-methylbenzyl)-1H-indol-3-yl)allylidene)hydrazine-1-carboximidamide], the values for the half-maximal inhibitory concentration (IC50) (in assay [1]; against hBACE 1 (setting [2]); at hBACE 1 (hBACE 1 PIC50 (μM))) were 144 ± 1.77 µM, 107 ± 2.55 µM and 107 µM, respectively.

As to `[H]/N=C(/N)NN=C(/C=C/c1ccc(C(C)C)cc1)c1cn(Cc2cc(F)ccc2F)c2ccccc12` [Compound 3f, (Z)-2-((E)-1-(1-(2,5-Difluorobenzyl)-1H-indol-3-yl)-3-(4-isopropylphenyl)allylidene)hydrazine-1-carboximidamide], the IC50 in assay [1] is 167 ± 2.12 µM; against hBACE 1 (setting [2]) it was 82.1 ± 2.74 µM; on hBACE 1 (hBACE 1 PIC50 (μM)) it was 81.3 µM.

Consider `[H]/N=C(/N)NN=C(/C=C/c1ccc(C(C)(C)C)cc1)c1cn(Cc2ccc(Br)cc2)c2ccccc12` [Compound 3g, (Z)-2-((E)-1-(1-(4-Bromobenzyl)-1H-indol-3-yl)-3-(4-(tert-butyl)phenyl)allylidene)hydrazine-1-carboximidamide], for which the IC50 was 156 ± 2.62 µM in assay [1], 178.2 ± 0.92 µM against hBACE 1 (setting [2]) and 178 µM on hBACE 1 (hBACE 1 PIC50 (μM)).

Regarding `[H]/N=C(/N)NN=C(/C=C/c1ccc(C(C)(C)C)cc1)c1cn(Cc2ccc(C(C)(C)C)cc2)c2ccccc12` [Compound 3h, (Z)-2-((E)-1-(1-(4-(tert-Butyl)benzyl)-1H-indol-3-yl)-3-(4-(tert-butyl)phenyl)allylidene)hydrazine-1-carboximidamide], the values for the IC50 (in assay [1]; on hBACE 1 (setting [2]); at hBACE 1 (hBACE 1 PIC50 (μM))) were 55.7 ± 3.17 µM, 179.2 ± 0.78 µM and 178 µM, respectively.

With `[H]/N=C(/N)NN=C(/C=C/c1ccc(OCc2ccccc2)cc1)c1cn(Cc2cccc(OCc3ccccc3)c2)c2ccccc12` [Compound 3i, (Z)-2-((E)-1-(1-(3-(Benzyloxy)benzyl)-1H-indol-3-yl)-3-(4-(benzyloxy)phenyl)allylidene)hydrazine-1-carboximidamide], the half-maximal inhibitory concentration (IC50) is 26.99 ± 0.13 µM in assay [1], 189 ± 1.91 µM at hBACE 1 (setting [2]) and 191 µM against hBACE 1 (hBACE 1 PIC50 (μM)).

As to `[H]/N=C(/N)NN=C(/C=C/c1ccc(C(F)(F)F)cc1)c1cn(Cc2ccc(CCCC)cc2)c2ccccc12` [Compound 3j, (Z)-2-((E)-1-(1-(4-Butylbenzyl)-1H-indol-3-yl)-3-(4-(trifluoromethyl)phenyl)allylidene)hydrazine-1-carboximidamide], the IC50 was 13.4 ± 0.49 µM in assay [1], 182.4 ± 1.41 µM against hBACE 1 (setting [2]) and 182 µM at hBACE 1 (hBACE 1 PIC50 (μM)).

On to `[H]/N=C(/N)NN=C(/C=C/c1ccc(C(C)(C)C)cc1)c1cn(Cc2ccc(C(F)(F)F)cc2)c2ccccc12` [Compound 3k, (Z)-2-((E)-3-(4-(tert-Butyl)phenyl)-1-(1-(4-(trifluoromethyl)benzyl)-1H-indol-3-yl)allylidene)hydrazine-1-carboximidamide], for which the values for the IC50 (in assay [1]; at hBACE 1 (setting [2]); against hBACE 1 (hBACE 1 PIC50 (μM))) were 207 ± 7.64 µM, 139 ± 1.98 µM and 138 µM, respectively.

For the molecule `[H]/N=C(/N)NN=C(/C=C/c1cc(OC)ccc1OC)c1cn(Cc2ccc(CCCC)cc2)c2ccccc12` [Compound 3l, (Z)-2-((E)-1-(1-(4-Butylbenzyl)-1H-indol-3-yl)-3-(2,5-dimethoxyphenyl)allylidene)hydrazine-1-carboximidamide], the IC50 in assay [1] was 58.4 ± 0.91 µM; at hBACE 1 (setting [2]), 196 ± 3.04 µM; on hBACE 1 (hBACE 1 PIC50 (μM)), 195 µM.
